These results are taken from paper PMC5669819 (Molecular cancer therapeutics, 2017).

Molecules are shown by their SMILES.

One test deals with PI3Kα (Homo sapiens, UniProt P42336). The experiment in a line: Adapta TR-FRET lipid kinase assay with purified enzyme. In kind it is biochemical.
A further test has as its target MEK1 (Homo sapiens, UniProt Q02750). The class given is biochemical.

Chain of PI3Kα (P42336 whole entry): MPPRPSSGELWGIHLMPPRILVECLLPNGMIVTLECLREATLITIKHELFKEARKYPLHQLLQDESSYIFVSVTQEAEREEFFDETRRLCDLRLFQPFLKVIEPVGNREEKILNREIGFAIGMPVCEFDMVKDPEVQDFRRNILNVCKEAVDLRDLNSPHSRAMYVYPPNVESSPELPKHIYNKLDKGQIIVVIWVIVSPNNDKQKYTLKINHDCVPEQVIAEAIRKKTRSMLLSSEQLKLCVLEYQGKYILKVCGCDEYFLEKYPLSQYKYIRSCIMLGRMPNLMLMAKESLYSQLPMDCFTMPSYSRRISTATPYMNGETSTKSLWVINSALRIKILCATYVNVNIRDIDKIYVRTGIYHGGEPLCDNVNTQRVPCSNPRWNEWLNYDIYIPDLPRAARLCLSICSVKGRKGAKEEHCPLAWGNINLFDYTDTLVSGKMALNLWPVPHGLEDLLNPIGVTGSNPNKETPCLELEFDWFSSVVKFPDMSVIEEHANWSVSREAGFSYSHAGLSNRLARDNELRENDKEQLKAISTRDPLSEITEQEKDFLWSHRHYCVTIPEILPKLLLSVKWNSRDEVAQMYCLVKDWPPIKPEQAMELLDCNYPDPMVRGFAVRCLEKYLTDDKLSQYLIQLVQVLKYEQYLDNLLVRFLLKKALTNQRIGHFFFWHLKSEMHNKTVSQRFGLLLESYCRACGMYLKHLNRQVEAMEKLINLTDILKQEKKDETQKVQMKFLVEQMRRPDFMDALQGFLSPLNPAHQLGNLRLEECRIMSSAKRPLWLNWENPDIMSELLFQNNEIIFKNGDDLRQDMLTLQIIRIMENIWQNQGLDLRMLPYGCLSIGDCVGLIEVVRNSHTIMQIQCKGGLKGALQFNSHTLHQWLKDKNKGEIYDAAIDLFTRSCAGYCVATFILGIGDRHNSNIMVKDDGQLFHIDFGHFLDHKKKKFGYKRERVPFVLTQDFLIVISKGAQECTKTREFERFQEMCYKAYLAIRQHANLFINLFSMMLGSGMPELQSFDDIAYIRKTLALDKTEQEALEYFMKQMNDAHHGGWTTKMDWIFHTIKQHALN
Chain of PI3Kα (P27986 2-724 partner): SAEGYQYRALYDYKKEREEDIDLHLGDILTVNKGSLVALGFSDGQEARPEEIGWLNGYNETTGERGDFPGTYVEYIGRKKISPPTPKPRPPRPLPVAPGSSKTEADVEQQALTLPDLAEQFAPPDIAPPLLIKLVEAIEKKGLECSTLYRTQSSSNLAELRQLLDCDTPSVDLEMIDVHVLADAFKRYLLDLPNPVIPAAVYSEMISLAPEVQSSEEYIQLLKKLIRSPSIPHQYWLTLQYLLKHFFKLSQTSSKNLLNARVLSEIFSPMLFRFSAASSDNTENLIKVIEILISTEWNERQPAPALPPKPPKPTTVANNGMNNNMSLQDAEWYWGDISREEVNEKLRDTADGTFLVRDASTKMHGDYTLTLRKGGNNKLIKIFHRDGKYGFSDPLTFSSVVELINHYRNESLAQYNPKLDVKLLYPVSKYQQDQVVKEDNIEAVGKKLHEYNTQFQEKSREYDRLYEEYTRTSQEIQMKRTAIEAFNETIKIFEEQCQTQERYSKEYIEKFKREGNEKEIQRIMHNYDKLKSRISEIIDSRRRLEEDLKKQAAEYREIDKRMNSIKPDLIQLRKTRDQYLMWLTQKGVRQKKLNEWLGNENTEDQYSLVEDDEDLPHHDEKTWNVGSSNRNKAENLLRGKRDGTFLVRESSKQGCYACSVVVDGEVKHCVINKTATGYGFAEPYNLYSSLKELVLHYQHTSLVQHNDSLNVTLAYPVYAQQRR
Chain of MEK1 (Q02750 whole entry): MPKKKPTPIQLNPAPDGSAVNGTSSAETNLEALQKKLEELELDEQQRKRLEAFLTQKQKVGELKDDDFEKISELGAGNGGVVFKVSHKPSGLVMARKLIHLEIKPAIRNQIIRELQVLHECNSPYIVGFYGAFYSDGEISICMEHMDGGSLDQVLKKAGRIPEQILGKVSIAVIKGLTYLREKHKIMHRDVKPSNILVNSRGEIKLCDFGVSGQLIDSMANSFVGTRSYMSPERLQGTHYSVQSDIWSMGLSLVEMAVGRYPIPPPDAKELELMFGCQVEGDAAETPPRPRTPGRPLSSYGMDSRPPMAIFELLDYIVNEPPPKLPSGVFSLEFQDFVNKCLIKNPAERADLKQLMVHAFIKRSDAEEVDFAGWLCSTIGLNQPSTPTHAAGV

For the compound `O=C(NOCCOCCOCCOCCN1CCN(c2nc(N3CCOCC3)nc(-n3c(C(F)F)nc4ccccc43)n2)CC1)c1ccc(F)c(F)c1Nc1ccc(I)cc1F` [ST-162], the IC50 on PI3Kα was 191 nM; against MEK1, 398 nM.
